Measurements as given in patent publication US20100227836A1, “PARENTERAL ADMINISTRATION OF A GLUCOSAMINE” (THE JOHNS HOPKINS UNIVERSITY, priority 2008, published 2010).

Tests used:
[1] = test system: surgically manipulated rat knees (osteoarthritis); assay: Experimental model of osteoarthritis in rodents, intraarticular injection, cartilage histology (safranin-O); assay type: in vivo; details: 2 mM, transcutaneous intraarticular injections weekly for three weeks
Method: For example, in an experimental model of osteoarthritis in rodents, rat knees were surgically manipulated to obtain histological manifestations of osteoarthritis (Janusz et al., Osteoarth, Cart. 10:785-791, 2002). Four weeks […], injured joints were untreated, or treated with a PBS control, a 2 mM glucosamine solution or a 1:1 mixture of 2 mM glucosamine solution and CSMA-aldehyde (chondroitin sulfate methacrylate) (Wang et al., Nat. Mater. 6:385-392, 2007). Treatments were transcutaneous, intraarticular injections weekly for three weeks.

[2] = test system: cell growth, matrix production and gene expression; details: narrow window; cited from earlier work
[3] = following nasogastric intake of 20 mg/kg/day of GlcN; cited from earlier work
[4] = test system: transforming growth factor β1 (TGF-β1) expression; details: cited from earlier work

N[C@H]1C(O)O[C@H](CO)[C@@H](O)[C@@H]1O (stereo partly drawn) [glucosamine, Glucosamine]
cartilage development and organization across treatment groups [1]: best developed and well organized | cartilage development in treated joints (histology, safranin-O) ([1]; four weeks after surgery, compared to PBS control and untreated control joints): Florid cartilage development | concentration window with beneficial effect on cell growth, matrix production and gene expression [2]: no more than 2 mM | level in serum [3]: ~6 µM | level in synovial fluid [3]: ~0.5 µM | TGF-β1 expression [4]: upregulated
